In patent US11040053B2, “Compositions and methods for activating “stimulator of interferon gene”13 dependent signalling” (CHINOOK THERAPEUTICS, INC., priority 2015, dated 2021):
pKd: −log10 of the molar value.

Molecular target: T1, human-STING(E149-S379)H232R protein (Homo sapiens, UniProt Q86WV6, H232R)
T1 construct: His6 (C); made in house; host or cells: E. coli
Assay: Surface Plasmon Resonance binding to hSTING WT
Settings: Biacore T200, 15° C., steady-state analysis
Description: Binding of the mono- and di-F CDN compounds was assessed using Surface Plasmon Resononce to determine a binding constant. An E. coli expression construct (human-STING[E149-S379]H232R) was prepared harboring the protein sequence:
Aliquots were prepared and stored at −80° C. in 30 mM Tris pH 7.5/100 mM NaCl/10% glycerol.
N-terminal avi-tagged human-STING(E149-S379)H232R protein was immobilized (2500 RUs) on a streptavidin chip at 15° C. in a Biacore T200 (GE Healthcare). Titrations of cyclic dinucleotides (CDNs as indicated in Table 6) in 30 mM Tris pH 7.5/50 mM NaCL/0.005% Tween 20/1 mM DTT/2% DMSO, were profiled (30 μLs/min, 180 seconds for sample contact/120 seconds for dissociation) against hSTING at 15° C. Kinetic analysis of the data was performed using Biacore T200 Evaluation software. Steady-state analysis of the data was performed using Graphpad Prism 6.0 software, using one site-specific binding algorithm (Equation is Y=Bmax*X/(Kd+X)).

T1 sequence (Q86WV6 with tags, fused parts or gaps H232R): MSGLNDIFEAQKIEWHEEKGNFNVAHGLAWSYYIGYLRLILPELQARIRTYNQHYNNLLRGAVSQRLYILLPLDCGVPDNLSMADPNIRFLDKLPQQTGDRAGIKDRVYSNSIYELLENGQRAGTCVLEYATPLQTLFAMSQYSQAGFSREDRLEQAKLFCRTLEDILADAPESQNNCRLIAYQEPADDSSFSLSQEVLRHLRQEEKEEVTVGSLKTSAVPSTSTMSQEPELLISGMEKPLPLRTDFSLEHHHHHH

## Nc1ncnc2c1ncn2[C@@H]1O[C@@H]2CO[P@@](=O)(S)O[C@H]3[C@@H](F)[C@H](n4cnc5c(N)ncnc54)O[C@@H]3CO[P@@](=O)(S)O[C@H]2[C@H]1F [Compound 6, (2R,3R,3aR,5R,7aR,9R,10R,10aR,12R,14aR)-2,9-bis(6-amino-9H-purin-9-yl)-3,10-difluoro-5,12-dimercaptooctahydro-2H,7H-difuro[3,2-d:3′,2′-j][1,3,7,9]tetraoxa[2,8]diphosphacyclododecine 5,12-dioxide]
  pKd: 9.00
